The source of these data is ChEMBL document CHEMBL1201862, “PubChem BioAssay data set” (2004).

Among the test systems are SK-OV-3; Malme-3M; A498; TK-10; UACC-257; SF-268; SK-MEL-28; 786-0; SN12C; SW-620; UACC-62; SR; COLO 205; SF-295; HT-29; MDA-MB-435; DU-145; MDA-N; MDA-MB-231.
What all share (assay): inhibition of tumour cell growth, NCI panel, 48 h

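All cell lines were grown in 96-well plates and treated with compound for 48 hours. Here, GI50 denotes the concentration required for 50% inhibition of growth.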 The source made the active and inactive calls. No stated cut-off is given here; in the data, active = GI50 up to about 1.1 µM and inactive = higher. Where only a bound is given, the exact number is not on record here.

In the case of `C1OC1CO[C@@H]1CO[C@H]2[C@@H]1OC[C@H]2OCC1CO1` (stereo not given in full), the GI50 in the experiment on SK-OV-3, in the experiment on Malme-3M, in the experiment with A498, with TK-10, in the experiment on UACC-257 and in the experiment on SF-268 was > 100 µM (inactive) each time. Further, the GI50 in the experiment on SK-MEL-28 is > 100 µM (inactive); with 786-0 it was > 100 µM (inactive); with SN12C, > 100 µM (inactive); in the experiment on SW-620 it was > 100 µM (inactive); in the experiment on UACC-62 it was > 100 µM (inactive); in the experiment with SR, 89.5 µM (inactive). In addition, the GI50 with COLO 205, in the experiment with SF-295 and with HT-29 was > 100 µM (inactive) in each case.

Turning to `O=C(COc1ccc2c(=O)cc(-c3ccc(Cl)cc3)oc2c1)N1CCN(c2ccccc2)CC1`, the GI50 was > 100 µM (inactive) in the experiment on SK-OV-3; > 100 µM (inactive) in the experiment with Malme-3M; 5.69 µM (inactive) in the experiment with A498; > 100 µM (inactive) with TK-10; > 100 µM (inactive) in the experiment on UACC-257; > 100 µM (inactive) in the experiment on SF-268. Also, the GI50 in the experiment on SK-MEL-28 is > 100 µM (inactive); in the experiment with 786-0 it was > 100 µM (inactive); in the experiment on SN12C, 65.9 µM (inactive); in the experiment with SW-620 it was > 100 µM (inactive); with UACC-62 it was > 100 µM (inactive); with SR it was > 100 µM (inactive). The GI50 with COLO 205 is 4.37 µM (inactive); in the experiment on SF-295 it was > 100 µM (inactive); in the experiment on HT-29, > 100 µM (inactive).

`O=C(/C=C/c1cc(Cl)cc(Cl)c1O)c1cccc(O)c1`: the GI50 with SK-OV-3 is 31.8 µM (inactive); with Malme-3M it was 28.6 µM (inactive); in the experiment with A498, > 100 µM (inactive); with TK-10 it was > 100 µM (inactive); in the experiment with UACC-257 it was > 100 µM (inactive); in the experiment with SF-268 it was 40.2 µM (inactive). Moreover, the GI50 with SK-MEL-28 was 43.5 µM (inactive); in the experiment on 786-0 it was 70.5 µM (inactive); with SN12C, 13.7 µM (inactive); in the experiment with SW-620, 54.5 µM (inactive); with UACC-62, 29.8 µM (inactive); in the experiment with SR it was 25.5 µM (inactive). Besides, the values for the GI50 in the experiment with COLO 205, with SF-295 and in the experiment with HT-29 were 18.6 µM (inactive), 14.8 µM (inactive) and 93.8 µM (inactive), respectively.

Regarding `O=C1N[C@@H](O)[C@@H]2ON=C(c3ccccc3)[C@H]12`, the GI50 in the experiment with SK-OV-3, in the experiment on Malme-3M, in the experiment with A498, with TK-10, in the experiment on UACC-257 and in the experiment on SF-268 was > 100 µM (inactive) each time. Moreover, the GI50 in the experiment with SK-MEL-28, in the experiment with 786-0, with SN12C, with SW-620, in the experiment with UACC-62 and with SR was > 100 µM (inactive) throughout. Also, the GI50 in the experiment on COLO 205, in the experiment on SF-295 and in the experiment on HT-29 was > 100 µM (inactive) throughout.

Consider `C[C@H](N)C(=O)Nc1ccc(-c2nc3ccccc3s2)cc1Cl`, for which the GI50 is 16.4 µM (inactive) in the experiment with SK-OV-3; 22.1 µM (inactive) in the experiment on Malme-3M; 13.6 µM (inactive) in the experiment with MDA-MB-435; 0.161 µM (active) in the experiment with TK-10; 18.6 µM (inactive) with UACC-257; 17.9 µM (inactive) in the experiment with SF-268. Moreover, the GI50 in the experiment with SK-MEL-28 is 14 µM (inactive); in the experiment with 786-0, 12.5 µM (inactive); in the experiment on DU-145, 16.6 µM (inactive); with SN12C, 15.9 µM (inactive); in the experiment on MDA-N it was 13.2 µM (inactive); in the experiment with SW-620, 15.2 µM (inactive). Further, the GI50 was 16.4 µM (inactive) with UACC-62; 3.8 µM (inactive) with SR; 12.5 µM (inactive) with COLO 205; 16.6 µM (inactive) with SF-295; 16.7 µM (inactive) in the experiment on HT-29.

Regarding `O=C(/C=C1/Nc2ccc([N+](=O)[O-])cc2NC1O)c1cccc([N+](=O)[O-])c1` (stereo not given), the GI50 is 20.3 µM (inactive) in the experiment with SK-OV-3; 38.4 µM (inactive) with Malme-3M; > 100 µM (inactive) in the experiment on A498; 35 µM (inactive) in the experiment on TK-10; 82.4 µM (inactive) with UACC-257; 53.2 µM (inactive) in the experiment with SF-268. Moreover, the GI50 in the experiment with SK-MEL-28 is 39.8 µM (inactive); in the experiment on 786-0 it was 14 µM (inactive); in the experiment on SN12C, > 100 µM (inactive); in the experiment on SW-620, 72.1 µM (inactive); with UACC-62 it was 81.7 µM (inactive); with SR, > 100 µM (inactive). In addition, the GI50 in the experiment with COLO 205 is 12.1 µM (inactive); in the experiment with SF-295, 13.6 µM (inactive); with HT-29, 56.2 µM (inactive).

As for `NC(=O)N/N=C(\Cc1cc(=O)oc2cc(O)ccc12)C(=O)Nc1ccccc1C(N)=O`, the GI50 in the experiment on SK-OV-3, in the experiment on MDA-MB-435, with TK-10, with UACC-257, with SF-268 and in the experiment on SK-MEL-28 was > 100 µM (inactive) throughout. The GI50 in the experiment on 786-0, in the experiment on DU-145, with SN12C, with MDA-N, in the experiment with SW-620 and in the experiment with MDA-MB-231 was > 100 µM (inactive) in each case. Moreover, the GI50 in the experiment on UACC-62, with COLO 205, in the experiment with SF-295 and with HT-29 was > 100 µM (inactive) throughout.

Regarding `CC1(C)CC(=O)C2=C(C1)S/C(=C1/SC3=C(S1)C(=O)CC(C)(C)C3)S2`, the GI50 in the experiment on SK-OV-3, with Malme-3M, in the experiment on A498, with TK-10, with UACC-257 and in the experiment with SF-268 was > 251 µM (inactive) in each case. Moreover, the GI50 with SK-MEL-28, with 786-0, in the experiment with SN12C, with SW-620, in the experiment with UACC-62 and with SR was > 251 µM (inactive) each time. The GI50 with COLO 205, with SF-295 and in the experiment with HT-29 was > 251 µM (inactive) throughout.

Turning to `Nc1nc2ncn(CC(O)CO)c2c(=S)[nH]1` (stereo not given), the GI50 in the experiment with SK-OV-3, in the experiment with Malme-3M, with A498, in the experiment with TK-10, with UACC-257 and in the experiment with SF-268 was > 100 µM (inactive) in each case. In addition, the GI50 with SK-MEL-28, with 786-0, in the experiment on SN12C, in the experiment with SW-620, in the experiment with UACC-62 and in the experiment on SR was > 100 µM (inactive) in each case. In addition, the GI50 in the experiment with COLO 205, in the experiment on SF-295 and in the experiment with HT-29 was > 100 µM (inactive) in each case.

As for `Cc1ccc(C2(O)CC(c3ccc([N+](=O)[O-])o3)=NN2C(=O)COc2ccc(Cl)cc2)cc1` (stereo not given), the GI50 is 15.3 µM (inactive) in the experiment on SK-OV-3; 11.6 µM (inactive) in the experiment on Malme-3M; 4.98 µM (inactive) with A498; 15 µM (inactive) in the experiment with TK-10; 4.91 µM (inactive) in the experiment on UACC-257; 5.85 µM (inactive) with SF-268. Also, the GI50 in the experiment on SK-MEL-28 was 9.77 µM (inactive); with 786-0, 4.45 µM (inactive); in the experiment with SN12C, 5.18 µM (inactive); with SW-620, 3.12 µM (inactive); with UACC-62 it was 3.55 µM (inactive); in the experiment with SR it was 1.82 µM (inactive). In addition, the results for the GI50 with COLO 205, in the experiment with SF-295 and in the experiment with HT-29 were 3.62 µM (inactive), 10.6 µM (inactive) and 5.47 µM (inactive), respectively.

As to `CC1(C)C(=O)N(c2ccccc2)C(=O)N1c1nc2ccccc2[nH]1`, the GI50 in the experiment on SK-OV-3, with Malme-3M, in the experiment on A498, in the experiment with TK-10, in the experiment on UACC-257 and in the experiment with SF-268 was > 100 µM (inactive) each time. In addition, the GI50 in the experiment on SK-MEL-28 was > 100 µM (inactive); with 786-0 it was > 100 µM (inactive); with SN12C, > 100 µM (inactive); in the experiment with SW-620, 17.4 µM (inactive); with UACC-62, > 100 µM (inactive); with SR it was 78.7 µM (inactive). Also, the GI50 is 49.7 µM (inactive) in the experiment on COLO 205, > 100 µM (inactive) in the experiment on SF-295 and 65.6 µM (inactive) in the experiment on HT-29.

As for `COc1ccc(C2S/C(=C\c3ccc([N+](=O)[O-])cc3)C(=O)N2NC(=O)Cc2ccccc2)cc1` (stereo not given), the GI50 in the experiment with SK-OV-3 is > 100 µM (inactive); with Malme-3M, > 100 µM (inactive); in the experiment on A498, > 100 µM (inactive); in the experiment with TK-10 it was > 100 µM (inactive); in the experiment with UACC-257, 87.5 µM (inactive); in the experiment with SF-268, > 100 µM (inactive). The GI50 in the experiment with SK-MEL-28 is > 100 µM (inactive); with 786-0, > 100 µM (inactive); in the experiment on SN12C it was > 100 µM (inactive); with SW-620, > 100 µM (inactive); in the experiment on UACC-62 it was 85.9 µM (inactive); in the experiment with SR it was > 100 µM (inactive). Besides, the GI50 in the experiment with COLO 205, with SF-295 and in the experiment on HT-29 was > 100 µM (inactive) in each case.

As to `Cc1cc(/N=N/c2ccccc2C)ccc1N`, the GI50 with SK-OV-3 is 24.8 µM (inactive); in the experiment with Malme-3M, 19 µM (inactive); in the experiment with MDA-MB-435 it was 19.5 µM (inactive); in the experiment with A498, 24.3 µM (inactive); with TK-10, 19.6 µM (inactive); with UACC-257, 17.9 µM (inactive). Besides, the GI50 in the experiment on SK-MEL-28 was 21 µM (inactive); with 786-0 it was 10.5 µM (inactive); in the experiment on SN12C, 12.4 µM (inactive); in the experiment on MDA-N, 18.5 µM (inactive); in the experiment with SW-620, 19.6 µM (inactive); in the experiment on MDA-MB-231 it was 14.8 µM (inactive). Besides, the GI50 with UACC-62 is 12.5 µM (inactive); with SR it was 12.7 µM (inactive); with COLO 205 it was 18.4 µM (inactive); with SF-295, 11.5 µM (inactive); in the experiment with HT-29 it was 17.3 µM (inactive).
